Results on 10 compounds are retold here after PubChem BioAssay (NCI).

Holding throughout (test): inhibition of tumour cell growth, NCI panel, 48 h
Experiment [1] deals with HCC-2998 colon.
The test system of experiment [2] is UACC-62 melanoma.
For experiment [3], the system named is NCI-H460 lung.
Experiment [4] has as its system OVCAR-4 ovarian.
The test system of experiment [5] is UO-31 renal.
In experiment [6] the test system is HOP-92 NSCLC.
Experiment [7] has as its system LXFL 529 NSCLC.
Experiment [8] concerns SK-MEL-5 melanoma.
The test system of experiment [9] is KM12 colon.
Experiment [10] has as its system MALME-3M melanoma.

“And” between values parts separate entries of the source, which are not always exact repeats. Equal entries are not always repeated.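 Briefly, cells in 96-well plates were exposed to five compound concentrations for 48 h, and endpoints were estimated by linear interpolation. At the GI50, growth is halved. TGI marks complete inhibition of growth.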

On to `COC(=O)C12C3C4C1C1C2C3C41C(=O)OC(C)(C)C` (stereo not given), for which the TGI in experiment [1], in experiment [2], in [3], in experiment [4], in experiment [5] and in experiment [6] was greater than 100 µM each time. The TGI in experiment [7], in experiment [8], in experiment [9] and in experiment [10] was greater than 100 µM each time.

Regarding `CNC(=S)NC1CCCCC1NC(=S)NC` (stereo not given), the TGI in [1], in experiment [2], in [3], in [4], in [5] and in [6] was greater than 100 µM in each case. In addition, the TGI in experiment [7], in [8], in experiment [9] and in [10] was greater than 100 µM throughout.

Turning to `COC(=O)c1cc2c3ccccc3n(C(C)=O)c2cn1`, the TGI in [1], in experiment [2], in experiment [3], in [4], in experiment [5] and in experiment [6] was greater than 100 µM throughout. Besides, the TGI in experiment [7], in [8], in experiment [9] and in experiment [10] was greater than 100 µM throughout.

With `COC(=O)C1=C(c2ccc3c(c2)OCO3)O[C@H](c2cc(OC)c(OC)c(OC)c2)[C@H]1COC(C)=O`, the TGI in experiment [1] is 19.6 µM; in experiment [2], 47.6 µM; in [3] it was greater than 100 µM; in experiment [4], greater than 100 µM; in [5] it was 31.6 µM; in experiment [6], 36 µM. For the same compound, the TGI in [7] is 36.3 µM; in [8] it was 7.83 µM; in experiment [9], 50 µM; in [10], 92.5 µM.

Regarding `C=C(C=O)[C@@H]1C2OC(=O)C(=C)[C@@H]2CC(O)[C@@]1(C)CC` (stereo not given in full), the TGI in [1] was 31.1 µM; in [2], 13.9 µM; in experiment [3] it was 51.4 µM; in [4], greater than 30.2 µM; in experiment [5], 45.8 µM; in [6], 4.19 µM. In addition, the TGI in experiment [7] amounted to 8.23 µM; in experiment [8], 19.8 µM; in [9], 37.2 µM; in [10], 18.7 µM.

Turning to `O=c1nc2occc2cn1C1CC(O)C(CO)O1` (stereo not given), the TGI in [1], in experiment [2], in [3], in experiment [4], in experiment [5] and in experiment [6] was greater than 100 µM in each case. Besides, the TGI in experiment [7], in [8], in [9] and in experiment [10] was greater than 100 µM in each case.

Turning to `O=S(=O)([O-])c1ccc2c(c1)-c1nc-2nc2[n-]c(nc3nc(nc4[n-]c(n1)c1ccc(S(=O)(=O)[O-])cc41)-c1cc(S(=O)(=O)[O-])ccc1-3)c1ccc(S(=O)(=O)[O-])cc21.[Cu+2].[Na+]`, the GI50 in experiment [1] is greater than 100 µM; in experiment [2] it was 21.7 µM; in experiment [3] it was 4.65 µM; in [4], 5.31 µM; in [5], greater than 39.6 µM; in experiment [6], 38.9 µM. Further, the GI50 in experiment [7] is 26.5 µM; in experiment [8], greater than 100 µM; in [9], 8.36 µM; in experiment [10], greater than 100 µM. The TGI in experiment [1] was greater than 100 µM; in experiment [2] it was greater than 100 µM; in [3], greater than 100 µM; in experiment [4], greater than 80.4 µM; in experiment [5], greater than 93.9 µM; in experiment [6] it was greater than 100 µM. The TGI is greater than 100 µM in [7], greater than 100 µM in experiment [8], greater than 76.8 µM in [9] and greater than 100 µM in experiment [10].

For `Cc1cc(Br)cc(C)c1NC(=O)C(=O)C(C(=O)c1ccc2ccccc2c1)C1OC(=O)c2ccccc21` (stereo not given), the TGI in experiment [1] was 24.7 µM; in experiment [2] it was 29.6 µM; in experiment [3], 20.9 µM; in [4] it was greater than 36.4 µM; in experiment [5] it was 30.3 µM; in [6], 6.9 µM. The TGI was 22.3 µM in [7], 23.8 µM in experiment [8], 34 µM in experiment [9] and 34.5 µM in [10].

`O=C1c2ccccc2C(=O)C1(Cl)C1(S(=O)(=O)O)c2ccccc2-c2ccccc21`: the TGI in experiment [1], in experiment [2], in [3], in [4], in experiment [5] and in [6] was greater than 100 µM throughout. Besides, the TGI in experiment [7], in experiment [8], in [9] and in experiment [10] was greater than 100 µM each time.

For the compound `CCOC(=O)Oc1c(OC)cc(C(=O)NC2CCc3cc(OC)c(OC)c(OC)c3-c3ccc(SC)c(=O)cc32)cc1OC` (stereo not given), the GI50 was 0.0156 µM in [1]; 0.00881 µM in [2]; 0.016 µM in experiment [3]; 14.8 µM in experiment [4]; less than 0.007 µM in experiment [7]; less than 0.007 µM in experiment [9]. The GI50 in experiment [10] is 0.0205 µM. Also, the TGI in [1] was 0.187 µM and 0.039 µM; in [2] it was greater than 70 µM; in experiment [4], greater than 70 µM; in [5], greater than 70 µM; in [6], 0.871 µM; in experiment [7] it was 42.1 µM. The TGI in [8] is 0.916 µM; in experiment [10], greater than 70 µM.
